Values of other authors as cited in US9457059B2, “Compositions and methods for treating renal failure” (La Jolla Pharmaceutical Company, priority 2013, dated 2016).

Columns and labels:
[1] = test system: patients with cirrhosis and ascites
[2] = test system: patients with cirrhosis and ascites; remark: listed apart in the source

**Q.** With “Asp-Arg-Val-Tyr-Ile-His-Pro-Phe (DRVYIHPF) [angiotensin II, peptide hormone that regulates blood pressure via vasoconstriction and sodium reabsorption]” as the compound, how does the tolerability ([1]; use in patients with cirrhosis and ascites) read?
**A.** well-tolerated

**Q.** Which “increase in urine output and sodium excretion compared with norepinephrine” value ([1]; Laragh et al., versus norepinephrine) does the source give for “Asp-Arg-Val-Tyr-Ile-His-Pro-Phe [angiotensin II, peptide hormone that regulates blood pressure via vasoconstriction and sodium reabsorption]” here?
**A.** much more pronounced than those produced by norepinephrine

**Q.** What about the “natriuresis and urine output” value ([1]; patients with cirrhosis and ascites, no renal failure) of the same compound?
**A.** induces marked natriuresis and urine output

**Q.** What about the “increase in sodium excretion compared with norepinephrine” value ([1]; second study, Ames et al., versus norepinephrine) of the same compound?
**A.** greater increase in sodium excretion compared to norepinephrine

**Q.** With `C[C@H](CS)C(=O)N1CCC[C@H]1C(=O)O` [captopril] as the compound, how does the “sodium excretion and urinary output” value [2] read?
**A.** significantly reduced both sodium excretion and urinary output
